± gives the expanded uncertainty stated by the source.
Settings: 323.14 K, Liquid, Vibrating tube method

CCCCCCCCCC [decane]
mass density (25291 kPa): 727.6 ± 2.1 kg/m3 | mass density (25325 kPa): 727.7 ± 2.1 kg/m3 | mass density (25361 kPa): 727.8 ± 2.1 kg/m3 | mass density (25383 kPa): 727.8 ± 2.1 kg/m3 | mass density (25422 kPa): 727.7 ± 2.1 kg/m3 | mass density (25458 kPa): 727.8 ± 2.1 kg/m3 | mass density (25493 kPa): 727.9 ± 2.1 kg/m3 | mass density (25521 kPa): 727.8 ± 2.1 kg/m3 | mass density (25556 kPa): 727.8 ± 2.1 kg/m3 | mass density (25593 kPa): 727.9 ± 2.1 kg/m3 | mass density (25624 kPa): 727.9 ± 2.1 kg/m3 | mass density (25670 kPa): 727.9 ± 2.1 kg/m3 | mass density (25706 kPa): 728 ± 2.1 kg/m3 | mass density (25742 kPa): 727.9 ± 2.1 kg/m3 | mass density (25783 kPa): 728 ± 2.1 kg/m3 | mass density (25828 kPa): 728 ± 2.1 kg/m3 | mass density (26192 kPa): 728.4 ± 2.1 kg/m3 | mass density (26343 kPa): 728.4 ± 2.1 kg/m3 | mass density (26723 kPa): 728.6 ± 2.1 kg/m3 | mass density (26758 kPa): 728.8 ± 2.1 kg/m3 | mass density (26793 kPa): 728.7 ± 2.1 kg/m3 | mass density (26842 kPa): 728.8 ± 2.1 kg/m3 | mass density (26872 kPa): 728.8 ± 2.1 kg/m3 | mass density (26912 kPa): 728.8 ± 2.1 kg/m3 | mass density (26952 kPa): 728.8 ± 2.1 kg/m3 | mass density (26992 kPa): 728.9 ± 2.1 kg/m3 | mass density (27043 kPa): 729 ± 2.1 kg/m3 | mass density (27362 kPa): 729.1 ± 2.1 kg/m3 | mass density (27409 kPa): 729.2 ± 2.1 kg/m3 | mass density (27440 kPa): 729.2 ± 2.1 kg/m3 | mass density (27472 kPa): 729.2 ± 2.1 kg/m3 | mass density (27524 kPa): 729.4 ± 2.1 kg/m3 | mass density (27568 kPa): 729.3 ± 2.1 kg/m3 | mass density (27605 kPa): 729.3 ± 2.1 kg/m3 | mass density (27657 kPa): 729.4 ± 2.1 kg/m3 | mass density (27684 kPa): 729.3 ± 2.1 kg/m3 | mass density (27758 kPa): 729.5 ± 2.1 kg/m3 | mass density (27796 kPa): 729.5 ± 2.1 kg/m3 | mass density (27882 kPa): 729.5 ± 2.1 kg/m3 | mass density (27920 kPa): 729.5 ± 2.1 kg/m3 | mass density (27958 kPa): 729.5 ± 2.1 kg/m3 | mass density (27997 kPa): 729.6 ± 2.1 kg/m3 | mass density (28042 kPa): 729.7 ± 2.1 kg/m3 | mass density (28096 kPa): 729.7 ± 2.1 kg/m3 | mass density (28135 kPa): 729.7 ± 2.1 kg/m3 | mass density (28185 kPa): 729.7 ± 2.1 kg/m3 | mass density (28230 kPa): 729.8 ± 2.1 kg/m3 | mass density (28317 kPa): 729.9 ± 2.1 kg/m3 | mass density (28358 kPa): 729.8 ± 2.1 kg/m3 | mass density (28393 kPa): 729.7 ± 2.1 kg/m3 | mass density (28457 kPa): 730.1 ± 2.1 kg/m3 | mass density (28496 kPa): 730 ± 2.1 kg/m3 | mass density (28541 kPa): 730 ± 2.1 kg/m3 | mass density (28571 kPa): 730.1 ± 2.1 kg/m3 | mass density (28605 kPa): 730 ± 2.1 kg/m3 | mass density (28640 kPa): 730.1 ± 2.1 kg/m3 | mass density (28675 kPa): 730.1 ± 2.1 kg/m3 | mass density (28714 kPa): 730.1 ± 2.1 kg/m3 | mass density (28744 kPa): 730.2 ± 2.1 kg/m3 | mass density (28779 kPa): 730.1 ± 2.1 kg/m3 | mass density (28819 kPa): 730.2 ± 2.1 kg/m3 | mass density (28844 kPa): 730.2 ± 2.1 kg/m3 | mass density (28887 kPa): 730.3 ± 2.1 kg/m3 | mass density (28913 kPa): 730.3 ± 2.1 kg/m3 | mass density (28938 kPa): 730.2 ± 2.1 kg/m3 | mass density (28968 kPa): 730.3 ± 2.1 kg/m3 | mass density (28999 kPa): 730.4 ± 2.1 kg/m3 | mass density (29030 kPa): 730.4 ± 2.1 kg/m3 | mass density (29065 kPa): 730.4 ± 2.1 kg/m3
